These results are taken from PubChem BioAssay AID1259407 (Chemical Carcinogenesis Research Information System (CCRIS), 2018).

The data set concerns CCRIS mutagenicity, Ames/micronucleus/aberration tests. The experiment in a line: CCRIS mutagenicity studies.
[1] abbreviates: Test System: AMES SALMONELLA TYPHIMURIUM, Strain/Indicator: TA98, Metabolic Activation: NONE, Method: PREINCUBATION
The mark [2] stands for this setting: Test System: AMES SALMONELLA TYPHIMURIUM, Strain/Indicator: TA98, Metabolic Activation: RAT, LIVER, S-9, AROCLOR 1254, Method: PREINCUBATION
The mark [3] stands for this setting: Test System: AMES SALMONELLA TYPHIMURIUM, Strain/Indicator: TA100, Metabolic Activation: NONE, Method: PREINCUBATION
Where [4] appears, read: Test System: AMES SALMONELLA TYPHIMURIUM, Strain/Indicator: TA100, Metabolic Activation: RAT, LIVER, S-9, AROCLOR 1254, Method: PREINCUBATION

Active and inactive are the calls of the source. The rule behind the calls is not given here.

With `CC(C)(C)OO`, the mutagenic call reads like this: (End Point: In vitro micronucleus, Test System: Chinese hamster V79 cells, Metabolic Activation: None) “active; positive (hibiscus tiliaceus l methanolic extract at doses above 0.010 mg/ml had”; (Test System: AMES SALMONELLA TYPHIMURIUM, Strain/Indicator: TA98, Metabolic Activation: HAMSTER, LIVER, S-9, AROCLOR 1254, Method: PREINCUBATION) “inactive; negative”; under setting [1], “inactive; negative”; under setting [2], “inactive; negative”; (Test System: AMES SALMONELLA TYPHIMURIUM, Strain/Indicator: TA100, Metabolic Activation: HAMSTER, LIVER, S-9, AROCLOR 1254, Method: PREINCUBATION) “inactive; negative”; under setting [3], “inactive; negative”. The mutagenic call runs as follows: under setting [4], “inactive; negative”; (Test System: AMES SALMONELLA TYPHIMURIUM, Strain/Indicator: TA102, Metabolic Activation: NONE, Method: STANDARD PLATE) “active; positive”; (Test System: AMES SALMONELLA TYPHIMURIUM, Strain/Indicator: TA1535, Metabolic Activation: HAMSTER, LIVER, S-9, AROCLOR 1254, Method: PREINCUBATION) “inactive; negative”; (Test System: AMES SALMONELLA TYPHIMURIUM, Strain/Indicator: TA1535, Metabolic Activation: NONE, Method: PREINCUBATION) “inactive; negative”; (Test System: AMES SALMONELLA TYPHIMURIUM, Strain/Indicator: TA1535, Metabolic Activation: RAT, LIVER, S-9, AROCLOR 1254, Method: PREINCUBATION) “inactive; negative”; (Test System: AMES SALMONELLA TYPHIMURIUM, Strain/Indicator: TA1537, Metabolic Activation: HAMSTER, LIVER, S-9, AROCLOR 1254, Method: PREINCUBATION) “active; positive”. For the same compound, the mutagenic call runs as follows: (Test System: AMES SALMONELLA TYPHIMURIUM, Strain/Indicator: TA1537, Metabolic Activation: NONE, Method: PREINCUBATION) “active; positive”; (Test System: AMES SALMONELLA TYPHIMURIUM, Strain/Indicator: TA1537, Metabolic Activation: RAT, LIVER, S-9, AROCLOR 1254, Method: PREINCUBATION) “active; positive”; (Test System: AMES SALMONELLA TYPHIMURIUM, Strain/Indicator: TA2638, Metabolic Activation: NONE, Method: STANDARD PLATE) “active; positive”; (Test System: AMES SALMONELLA TYPHIMURIUM, Strain/Indicator: TA2638A, Metabolic Activation: NONE, Method: STANDARD PLATE) “active; positive”; (Test System: E. COLI, Strain/Indicator: IC202, Metabolic Activation: NONE, Method: STANDARD PLATE) “active; positive”; (Test System: E. COLI, Strain/Indicator: IC203, Metabolic Activation: NONE, Method: STANDARD PLATE) “active; positive”. Further, the mutagenic call reads like this: (Test System: E. COLI, Strain/Indicator: IC5059, Metabolic Activation: NONE, Method: STANDARD PLATE) “active; positive”; (Test System: E. COLI, Strain/Indicator: IC5064, Metabolic Activation: NONE, Method: STANDARD PLATE) “active; positive”; (Test System: E. COLI, Strain/Indicator: IC5184, Metabolic Activation: NONE, Method: STANDARD PLATE) “active; positive”; (Test System: E. COLI, Strain/Indicator: IC5185, Metabolic Activation: NONE, Method: STANDARD PLATE) “active; positive”; (Test System: E. COLI, Strain/Indicator: WP2 (PKM101), Metabolic Activation: NONE, Method: STANDARD PLATE) “active; positive”; (Test System: E. COLI, Strain/Indicator: WP2 UVRA (PKM101), Metabolic Activation: NONE, Method: STANDARD PLATE) “active; positive”. Further, the mutagenic call by setting is: (Test System: E. coli, Strain/Indicator: WP2 IC185 trpE65, Metabolic Activation: None, Method: Plate incorporation (Test material solvent: 1 x M9 buffer)) “active; positive. linalool, myrcene and eycalyptol did not inhibit mutagenesis”; (Test System: E. coli, Strain/Indicator: WP2 IC202 trpE65 oxyR/pKM101, Metabolic Activation: None, Method: Plate incorporation (Test material solvent: 1 x M9 buffer)) “active; positive. linalool, myrcene and eycalyptol inhibited mutagenesis”.

With `CCCCC[N+](=O)[O-]`, the mutagenic call is, setting by setting: under setting [1], “inactive; negative”; (Test System: AMES SALMONELLA TYPHIMURIUM, Strain/Indicator: TA98, Metabolic Activation: RAT, LIVER, S-9, AROCLOR, Method: PREINCUBATION) “inactive; negative”; under setting [3], “inactive; negative”; (Test System: AMES SALMONELLA TYPHIMURIUM, Strain/Indicator: TA100, Metabolic Activation: RAT, LIVER, S-9, AROCLOR, Method: PREINCUBATION) “inactive; negative”; (Test System: AMES SALMONELLA TYPHIMURIUM, Strain/Indicator: TA102, Metabolic Activation: NONE, Method: PREINCUBATION) “inactive; negative”; (Test System: AMES SALMONELLA TYPHIMURIUM, Strain/Indicator: TA102, Metabolic Activation: RAT, LIVER, S-9, AROCLOR, Method: PREINCUBATION) “inactive; negative”. The mutagenic call (Test System: UDS RAT HEPATOCYTES, Strain/Indicator: THY INCORP, Metabolic Activation: NONE) is “inactive; negative”.

Consider `COP(=O)(SC)SC`, for which the mutagenic call (Test System: AMES SALMONELLA TYPHIMURIUM, Strain/Indicator: TA97, Metabolic Activation: NONE, Method: STANDARD PLATE) was “inactive; negative”; the mutagenic call (Test System: AMES SALMONELLA TYPHIMURIUM, Strain/Indicator: TA97, Metabolic Activation: RAT, LIVER, S-9, AROCLOR 1254, Method: PREINCUBATION) is “inactive; negative”; the mutagenic call (Test System: AMES SALMONELLA TYPHIMURIUM, Strain/Indicator: TA97, Metabolic Activation: RAT, LIVER, S-9, AROCLOR 1254, Method: STANDARD PLATE) is “inactive; negative”; the mutagenic call (Test System: AMES SALMONELLA TYPHIMURIUM, Strain/Indicator: TA98, Metabolic Activation: NONE, Method: STANDARD PLATE) is “inactive; negative”; the mutagenic call under setting [2] is “inactive; negative”; the mutagenic call (Test System: AMES SALMONELLA TYPHIMURIUM, Strain/Indicator: TA98, Metabolic Activation: RAT, LIVER, S-9, AROCLOR 1254, Method: STANDARD PLATE) was “inactive; negative”. Also, the mutagenic call is “inactive; negative” (Test System: AMES SALMONELLA TYPHIMURIUM, Strain/Indicator: TA100, Metabolic Activation: NONE, Method: STANDARD PLATE); “inactive; negative” under setting [4]; “inactive; negative” (Test System: AMES SALMONELLA TYPHIMURIUM, Strain/Indicator: TA100, Metabolic Activation: RAT, LIVER, S-9, AROCLOR 1254, Method: STANDARD PLATE).

`COc1ccc(-c2oc3ccccc3c(=O)c2[N+](=O)[O-])cc1[N+](=O)[O-]`: the mutagenic call reads like this: (Test System: AMES SALMONELLA TYPHIMURIUM, Strain/Indicator: TA100, Metabolic Activation: RAT LIVER S-9, AROCLOR 1254, Method: STANDARD PLATE) “active; positive”; (Test System: AMES SALMONELLA TYPHIMURIUM, Strain/Indicator: YG1042, Metabolic Activation: RAT LIVER S-9, AROCLOR 1254, Method: STANDARD PLATE) “active; positive”.

Turning to `Nc1c(Cl)cc([N+](=O)[O-])cc1[N+](=O)[O-]`, the mutagenic call was “active; positive (structural changes); authors report equivocal results for ploidy chang” (End Point: IN VITRO CHROMOSOMAL ABERRATIONS, Test System: CHL CELLS, Metabolic Activation: RAT, LIVER, S-9, SODIUM PHENOBARBITAL AND 5,6-BENZOFLAVONE); “active; positive” under setting [1]; “active; positive” (Test System: AMES SALMONELLA TYPHIMURIUM, Strain/Indicator: TA98, Metabolic Activation: RAT, LIVER, S-9, KANECHLOR 500, Method: PREINCUBATION); “active; positive” (Test System: AMES SALMONELLA TYPHIMURIUM, Strain/Indicator: TA98, Metabolic Activation: RAT, LIVER, S-9, PHENOBARBITAL AND BETA-NAPHTHOFLAVONE, Method: PREINCUBATION); “active; positive” under setting [3]; “active; positive” (Test System: AMES SALMONELLA TYPHIMURIUM, Strain/Indicator: TA100, Metabolic Activation: RAT, LIVER, S-9, KANECHLOR 500, Method: PREINCUBATION). The mutagenic call (Test System: AMES SALMONELLA TYPHIMURIUM, Strain/Indicator: TA100, Metabolic Activation: RAT, LIVER, S-9, PHENOBARBITAL AND BETA-NAPHTHOFLAVONE, Method: PREINCUBATION) was “active; positive”.
